Reference: patent US20120251495A1, “PTERIN BASED THERAPIES FOR INFLAMMATORY CONDITIONS” (priority 2008, published 2012)

Assays:
Format in all cases: in vivo
HBe antigen = assay: Sera HBeAg ELISA in HBV transgenic mice; details: females; 10 mg/(kg d)
Experimental: (§1) Experimental design. DCP was administered per os, once daily for 14 days to randomly assigned HBV transgenic mice at 23, 7.3, and 2.3 mg/(kg d). ADV was used as a positive control at 10 mg/(kg d) using the same treatment schedule and vehicle (0.4% CMC). On day 14, mice were euthanized to collect serum and liver samples to perform liver HBV DNA, liver core and serum HBe assays, serum cytokine/chemokine profiles, and IDO metabolite assays.
Sera HBeAg. Whole blood samples were obtained during necropsy by cardiac puncture, and processed for an HBeAg-specific ELISA (International Immuno Diagnostics, Foster City Calif.) (Money J D, Motter N E, Taro B, Lay M & Fairman J. Efficacy of cationic lipid-DNA complexes (CLDC) on hepatitis B virus in transgenic mice. Antiviral Res 2008; 79:71-79). Using the known PEI (Paul Ehrlich Institute) units for the calibrator, PEI units were formulated for the serial dilutions of the positive serum. A graph was generated, and extrapolation was used to assign a PEI unit value for each sample.

hepatitis B virus (HBV) [1] = assay: Liver HBV DNA by Southern blot hybridization in HBV transgenic mice; details: 10 mg/(kg d)
Source text: Animals. Homozygous adult female and male transgenic HBV mice were used (20.6±2.8 g). The mice were originally obtained from Dr. Frank Chisari (Scripps Research Institute, La Jolla, Calif.) (Guidotti L G, Matzke B, Schaller H & Chisari F V. High-level hepatitis B virus replication in transgenic mice. J Virol 1995; 69:6158-6169) and were subsequently raised in the Biosafety Level 3 (BL-3) area of the AAALAC-accredited USU Laboratory Animal Research Center (LARC). The animals were derived from founder 1.3.32 (Guidotti L G, Matzke B, Schaller H & Chisari F V. High-level hepatitis B virus replication in transgenic mice. J Virol 1995; 69:6158-6169). This study was conducted in accordance with the approval of the Institutional Animal Care and Use Committee of Utah State University.
as §1
Liver HBV DNA assays. Southern blot hybridization and quantitative PCR (qPCR) were performed on liver tissues (Morrey J D, Motter N E, Tam B, Lay M & Fairman J. Efficacy of cationic lipid-DNA complexes (CLDC) on hepatitis B virus in transgenic mice. Antiviral Res 2008; 79:71-79). For Southern blot hybridization, the ratio of the viral DNA bands to the transgene band was used to determine the concentration of viral DNA per host DNA. This calculation was based upon the knowledge that there were 1.3 copies of the transgene present per host cell with this line of transgenic mice. The transgene was used as an internal indicator to calculate the pg of HBV DNA per μg of homozygous cellular host DNA. For qPCR, the assay was run with a series of 10-fold dilutions of pooled liver DNA from HBV transgenic mice to obtain a standard curve. Mean C(t) values were obtained for duplicates of each sample. The mean C(t) values of each sample were used to obtain the log relative DNA values using a formula of the fit line of the standard curve.

[2] = tested on: hepatitis B core antigen (HBcAg); assay: Liver HBcAg assay in HBV transgenic mice; details: 10 mg/(kg d)
Experimental: as §1
Liver HBcAg assay. Liver biopsies were processed for detection of hepatitis B core antigen (HBcAg) (Motley J D, Motter N E, Taro B, Lay M & Fairman J. Efficacy of cationic lipid-DNA complexes (CLDC) on hepatitis B virus in transgenic mice. Antiviral Res 2008; 79:71-79). Three different parameters were obtained from each tissue section. […] The first two parameters were obtained by counting cells surrounding central veins as follows: the total number of cells, the number of cells with stained nuclei, and the number of cells with stained cytoplasms. The identities of the samples were blinded to person counting. The stained nuclei counts or the stained cytoplasm counts were divided by the total cells. Three central vein areas were counted for each slide sample. For the third parameter, a field not in a central vein area was counted for the total number of stained nuclei. One-quarter of the field was counted. Three such fields were counted per liver section. The identity of the samples was blinded to the person reading the slides.

hepatitis B virus (HBV) [3] = assay: Liver HBV DNA by quantitative PCR in HBV transgenic mice; details: female HBV mice; 10 mg/(kg d), per os 14 days

**Q.** How did the “HBe antigen (ELISA) versus controls” value (HBe antigen) turn out when `CC(C)(C)C(=O)OCOP(=O)(COCCn1cnc2c(N)ncnc21)OCOC(=O)C(C)(C)C` [Adefovir dipivoxil, adefovir dipivoxil, reference compound] was run?
**A.** significant increase

**Q.** What about the “Liver HBV DNA (Southern), Female levels (mean ± SEM)” value (hepatitis B virus (HBV) [1]; female) of the same molecule?
**A.** 3.5 ± 0.55 pg/µg

**Q.** What about the “Liver HBV DNA (Southern), Male levels (mean ± SEM)” value (hepatitis B virus (HBV) [1]; male) of the same molecule?
**A.** 1.5 ± 0.37 pg/µg

**Q.** And the “HBcAg Stained nuclei/total, Female levels (mean ± SEM)” value ([2]; female)?
**A.** 27.7 ± 3.0

**Q.** And the “HBcAg Stained nuclei/total, Male levels (mean ± SEM)” value ([2]; male)?
**A.** 14.1 ± 3.5

**Q.** What about the “Log HBV DNA (PCR) versus controls” value (hepatitis B virus (HBV) [3]) of the same molecule?
**A.** significant treatment decreases
